Reference: paper PMC4106271 (Journal of Medicinal Chemistry, 2014)

Columns and labels:
α1β2γ2S GABAA receptors = target: T1, α1β2γ2S GABAA receptors (Homo sapiens, UniProt P14867+P47870); test: Two-microelectrode voltage clamp, IGABA modulation, α1β2γ2S; type: cell-based; settings: for nH: Hill coefficient of concentration–response curve; for EC50: IGABA enhancement, GABA EC3–7, Xenopus oocytes
T1 construct: expressed in transfected cells; host or cells: Xenopus laevis oocytes injected with cRNA (pCMV cDNA templates)
Method: Preparation of stage V–VI oocytes from X. laevis and synthesis of capped runoff poly(A) cRNA transcripts from linearized cDNA templates (pCMV vector) was performed as previously described.[49] […] Follicle membranes from isolated oocytes were enzymatically digested with 2 mg/mL collagenase (type 1A, Sigma–Aldrich, Vienna, Austria).
(§1) Selected oocytes were injected with 10–50 nL of DEPC-treated water (diethyl pyrocarbonate, Sigma, Vienna, Austria) containing the different GABAA cRNAs at a concentration of approximately 300–3000 pg·nL^–1·subunit^–1.
To ensure expression of the γ2S subunit in the case of α1/2/3/5β2/3γ2S receptors, cRNAs were mixed in a ratio of 1:1:10. […] The amount of cRNAs was determined by means of a NanoDrop ND-1000 (Kisker-Biotech, Steinfurt, Germany).
(§2) Oocytes were stored at +18 °C in modified ND96 solution (90 mM NaCl, 1 mM CaCl2, 1 mM KCl, 1 mM MgCl2·6H2O, and 5 mM HEPES [4-(2-hydroxyethyl)-1-piperazineethanesulfonic acid], pH 7.4, all from Sigma–Aldrich, Vienna, Austria).
(§3) Chloride currents through GABAA receptors (IGABA) were measured at room temperature (+21 ± 1 °C) by means of a two-microelectrode voltage clamp technique making use of a Turbo TEC-05X amplifier (npi electronic, Tamm, Germany). IGABA were elicited at a holding potential of –70 mV. Data acquisition was carried out by means of an Axon Digidata 1322A interface using pCLAMP v.10 (Molecular Devices, Sunnyvale, CA). The modified ND96 solution was used as bath solution.
(§4) GABA and the studied derivatives were applied by means of the ScreeningTool (npi electronic, Tamm, Germany) fast perfusion system as described previously.[50] To elicit IGABA, the chamber was perfused with 120 μL of GABA- or compound-containing solution at a volume rate of 300 μL/s.[34] Care was taken to account for possible slow recovery from increasing levels of desensitization in the presence of high drug concentrations. The duration of washout periods was therefore extended from 1.5 min (<10 μM compounds) to 30 min (≥10 μM compounds). Oocytes with maximal current amplitudes >3 μA were discarded to exclude voltage clamp errors.
Stimulation of chloride currents by modulators of the GABAA receptor was measured at a GABA concentration eliciting between 3% and 7% of the maximal current amplitude (EC3–7). The GABA EC3–7 was determined for each oocyte individually. Enhancement of the chloride current was defined as (IGABA+compd/IGABA) – 1, where IGABA+compd is the current response in the presence of a given compound and IGABA is the control GABA current. IGABA-max reflects the maximal IGABA enhancement. Concentration–response curves were generated and the data were fitted by nonlinear regression analysis using Origin Software (OriginLab Corp.). Data were fitted to the equation 1/(1 + (EC50/[compound])^nH), where nH is the Hill coefficient. […] Statistical significance was calculated by paired Student t-test with a confidence interval of <0.05.

α1β3γ2S GABAA receptors = target: T2, α1β3γ2S GABAA receptors (Homo sapiens, UniProt P14867+P28472); test: Two-microelectrode voltage clamp, IGABA modulation, α1β3γ2S; type: cell-based; settings: for nH: Hill coefficient
T2 construct: expressed in transfected cells; host or cells: Xenopus laevis oocytes injected with cRNA (pCMV cDNA templates)
Method: Preparation of stage V–VI oocytes from X. laevis and synthesis of capped runoff poly(A) cRNA transcripts from linearized cDNA templates (pCMV vector) was performed as previously described.[49] Female X. laevis frogs (Nasco) were anesthetized by 15 min incubation in a 0.2% MS-222 (methanesulfonate salt of 3-aminobenzoic acid ethyl ester; Sigma–Aldrich, Vienna, Austria) solution before removal of parts of the ovaries. Follicle membranes from isolated oocytes were enzymatically digested with 2 mg/mL collagenase (type 1A, Sigma–Aldrich, Vienna, Austria).
as §1
To ensure expression of the γ2S subunit in the case of α1/2/3/5β2/3γ2S receptors, cRNAs were mixed in a ratio of 1:1:10. For expression of receptors composed of α4β2γ2S and α1β1γ2S, cRNAS were mixed in a ratio of 3:1:10. The amount of cRNAs was determined by means of a NanoDrop ND-1000 (Kisker-Biotech, Steinfurt, Germany).
as §2
as §3, with “solution. Microelectrodes were filled with 2 M KCl and had resistances between 1 and 3 MΩ.” for “solution.”
as §4, with “Oocytes with maximal current amplitudes >3 μA were discarded to exclude voltage clamp errors.” left out
Stimulation of chloride currents by modulators of the GABAA receptor was measured at a GABA concentration eliciting between 3% and 7% of the maximal current amplitude (EC3–7). The GABA EC3–7 was determined for each oocyte individually. […] Statistical significance was calculated by paired Student t-test with a confidence interval of <0.05.

T2 sequence (P14867 28-456): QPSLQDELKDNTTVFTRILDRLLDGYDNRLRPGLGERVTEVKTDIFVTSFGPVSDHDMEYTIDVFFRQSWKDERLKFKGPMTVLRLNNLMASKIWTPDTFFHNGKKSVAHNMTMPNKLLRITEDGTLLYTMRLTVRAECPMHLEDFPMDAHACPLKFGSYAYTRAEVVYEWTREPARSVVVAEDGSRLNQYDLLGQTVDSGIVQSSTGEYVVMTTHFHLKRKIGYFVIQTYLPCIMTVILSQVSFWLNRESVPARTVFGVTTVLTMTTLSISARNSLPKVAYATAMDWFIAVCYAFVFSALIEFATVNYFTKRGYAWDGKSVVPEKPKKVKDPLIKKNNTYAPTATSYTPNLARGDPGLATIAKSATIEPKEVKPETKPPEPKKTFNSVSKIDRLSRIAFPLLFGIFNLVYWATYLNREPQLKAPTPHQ
T2 sequence (P28472 26-473): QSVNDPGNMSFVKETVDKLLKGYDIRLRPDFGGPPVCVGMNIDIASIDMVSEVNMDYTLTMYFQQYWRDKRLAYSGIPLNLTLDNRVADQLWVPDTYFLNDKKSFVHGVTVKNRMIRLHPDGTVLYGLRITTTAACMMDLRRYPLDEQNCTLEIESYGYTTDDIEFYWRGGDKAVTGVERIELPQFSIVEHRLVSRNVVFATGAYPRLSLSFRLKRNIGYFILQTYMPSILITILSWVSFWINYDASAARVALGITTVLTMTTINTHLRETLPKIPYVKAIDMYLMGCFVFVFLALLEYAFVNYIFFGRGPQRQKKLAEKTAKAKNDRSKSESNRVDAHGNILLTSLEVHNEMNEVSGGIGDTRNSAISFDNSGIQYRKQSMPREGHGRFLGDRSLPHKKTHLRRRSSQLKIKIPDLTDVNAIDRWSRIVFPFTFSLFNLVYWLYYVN
T2 sequence (P18507 40-467 isoform P18507-1 partner limits assumed): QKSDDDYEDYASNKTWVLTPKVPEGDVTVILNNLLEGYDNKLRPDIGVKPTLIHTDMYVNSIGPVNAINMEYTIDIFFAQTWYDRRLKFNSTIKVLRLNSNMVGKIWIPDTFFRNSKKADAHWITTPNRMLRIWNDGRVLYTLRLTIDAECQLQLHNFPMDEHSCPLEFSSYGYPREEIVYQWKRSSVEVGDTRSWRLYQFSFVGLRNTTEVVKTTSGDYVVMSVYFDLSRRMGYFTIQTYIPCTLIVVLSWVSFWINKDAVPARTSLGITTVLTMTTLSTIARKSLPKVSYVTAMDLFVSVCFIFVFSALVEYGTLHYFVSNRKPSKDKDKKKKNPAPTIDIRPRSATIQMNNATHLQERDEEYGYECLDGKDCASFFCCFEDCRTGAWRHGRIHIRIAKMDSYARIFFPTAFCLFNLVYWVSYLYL
T1 sequence (P14867 28-456): as the sequence (P14867 28-456) above
T1 sequence (P47870 26-512): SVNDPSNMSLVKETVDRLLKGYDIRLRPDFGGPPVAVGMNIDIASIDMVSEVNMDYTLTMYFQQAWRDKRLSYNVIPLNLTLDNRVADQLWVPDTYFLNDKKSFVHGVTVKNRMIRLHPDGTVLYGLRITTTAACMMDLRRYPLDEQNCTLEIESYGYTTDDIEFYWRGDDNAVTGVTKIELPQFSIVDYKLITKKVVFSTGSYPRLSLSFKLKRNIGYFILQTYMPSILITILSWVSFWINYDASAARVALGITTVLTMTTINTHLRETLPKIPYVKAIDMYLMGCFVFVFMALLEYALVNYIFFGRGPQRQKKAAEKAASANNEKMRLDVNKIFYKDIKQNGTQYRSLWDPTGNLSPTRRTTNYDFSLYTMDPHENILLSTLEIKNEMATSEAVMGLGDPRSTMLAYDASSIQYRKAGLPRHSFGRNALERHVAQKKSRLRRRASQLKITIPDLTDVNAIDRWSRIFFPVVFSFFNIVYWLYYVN
T1 sequence (P18507 40-467 isoform P18507-1 partner limits assumed): as the sequence (P18507 40-467 isoform P18507-1 partner limits assumed) above

Compound	nH (α1β2γ2S GABAA receptors)	EC50 (α1β2γ2S GABAA receptors) [µM]	EC50 (α1β3γ2S GABAA receptors) [µM]	nH (α1β3γ2S GABAA receptors)
CCCN(CCC)C(=O)/C=C/C=C/c1ccc2c(c1)OCO2 [Compound 23, (2E,4E)-5-(1,3-benzodioxol-5-yl)-N,N-dipropyl-2,4-pentadienamide]	3.1 ± 0.8	51.7 ± 9.5	34.7 ± 5.7	1.9 ± 0.2
CCCCN(CCCC)C(=O)/C=C/C=C/c1ccc2c(c1)OCO2 [Compound 25, (2E,4E)-5-(1,3-Benzodioxol-5-yl)-N,N-dibutyl-2,4-pentadienamide]	1.8 ± 0.1	13.8 ± 1.8	29.5 ± 2.9	1.5 ± 0.1
